Measured values from publication PMC8876255 (Bioorganic & medicinal chemistry letters, 2021).

Assays:
[1] = system: UPR markers sXbp1, HSPA5A (BiP), DDIT3 (CHOP) in MDA-MB-231 cells; assay: UPR / ER stress gene induction by qPCR; assay type: cell-based; conditions: MDA-MB-231, 6 h, 2 times the EC50, qPCR
MDA-MB-231 cells = assay: Cancer cell viability assay; assay type: cell-based

| SMILES | accumulation of spliced Xbp1 transcription factor [1] | inhibitory effect on cell growth (MDA-MB-231 cells; MDA-MB-231 viability assay, negative control) | additive or synergistic effect with JMS-053 on viability (MDA-MB-231 cells; addition of 20–60 μM 4 to MDA-MB-231 cells treated with JMS-053) | expression of pro-apoptotic gene CHOP (DDIT3) [1] |
| --- | --- | --- | --- | --- |
| O=C(CC12CC3CC(CC(C3)C1)C2)NCCCCOc1ccc(-c2cc3c(s2)C(=O)C(=O)NC3=O)cc1 [Compound 7b] | significantly lower accumulation |  |  |  |
| O=C(CC12CC3CC(CC(C3)C1)C2)NCCCCO [Compound 4] |  | negligible inhibitory effects on cell growth | failed to detect any changes in viability |  |
| N=C1C(=O)NC(=O)c2cc(-c3ccc(OCCCCNC(=O)CC45CC6CC(CC(C6)C4)C5)cc3)sc21 [Compound 7a] | moderate accumulation |  |  | strongly enhanced expression |
